In patent US9254251B2, “Benzoic acid amide compound” (AMOREPACIFIC CORPORATION, priority 2011, dated 2016) one finds IC50 data, which are given here for 13 molecules.

Structures are written as SMILES.

One experiment has as its system B16F10 melanoma cells. Kind of experiment: Effect of reducing melanin production in melanocytes (Dooley's method). Format: cell-based. Particulars: B16-F10, 120 h; Mouse-derived B16F10 melanoma cells; melanin extracted after 5 days, absorbance at 405 nm; read-out: IC50 (concentration required to reduce melanin production in melanocytes to half). As for the experimental part: The effect of reducing melanin production of the benzamide derivative compounds prepared in Examples in melanocytes was measured according to the Dooley's method. Mouse-derived B16F10 melanoma cells acquired from the Korean Cell Line Bank were used. DMEM (Cat No. 11995), FBS (Cat No. 16000-044), and antibiotic and antifungal agents (Cat No. 15240-062) necessary for cell culturing were purchased from Invitrogen (GIBCO). The cells were cultured under the condition of 37° C. and 5% CO2. The cultured B16F10 cells were detached using 0.05% trypsin-EDTA and seeded onto a 48-well plate with the same cell number (1×10^4 cells/well). From the next day, the culture medium was replaced with one containing 10 ppm of the compound of Examples for three consecutive days. Kojic acid and rucinol were used as positive control. After 5 days, melanin was extracted from the cells by treating with 1 N NaOH at 60° C. for 2 hours, which was quantitated by measuring absorbance at 405 nm.

The next experiment concerns the target mushroom tyrosinase. Nature of the experiment: Effect of inhibiting mushroom tyrosinase activity (method of Vanni, et al.). As to conditions: read-out: IC50 (concentration required to inhibit tyrosinase activity to 50%); mushroom tyrosinase 10 units, tyrosine substrate, 37° C. for 10 minutes, pH 6.8, absorbance at 480 nm. The experiment is classed as biochemical. As for the experimental part:
The effect of inhibiting mushroom tyrosinase activity of the benzamide derivative compounds of Examples was measured according to the method of Vanni, et al. Specifically, 49.5 μL of 0.1 M potassium phosphate buffer (pH 6.8), 45 μL of distilled water (DW), 0.5 μL (10 units) of mushroom tyrosinase (SIGMAT-7755) and 5 μL of the benzamide derivative compound of Examples were mixed and reacted at 37° C. for 10 minutes by mixing with 50 μL of 0.3 mg/mL tyrosine aqueous solution in a 96-well plate (total volume: 150 μL).

As for `O=C(NCCc1ccc(O)c(O)c1)c1ccc(O)c(C23CC4CC(CC(C4)C2)C3)c1` [Example 13, 3-adamantan-1-yl-N-[2-(3,4-dihydroxyphenyl)-ethyl]-4-hydroxybenzamide], the IC50 in the experiment with B16F10 melanoma cells amounted to 3000 nM. Same read-out and setting: in the case of `COc1cc(CNC(=O)c2cc(C34CC5CC(CC(C5)C3)C4)c(O)cc2O)cc(OC)c1` [Example 21, 5-adamantan-1-yl-N-(3,5-dimethoxybenzyl)-2,4-dihydroxybenzamide] it was 2000 nM. Still for that read-out and setting: in the case of `O=c1cc(CO)occ1O` [Kojic acid, reference compound] it was 300000 nM. As to `COc1ccc(C(=O)NCc2ccc(O)cc2O)cc1C12CC3CC(CC(C3)C1)C2` [Example 18, 3-adamantan-1-yl-N-(2,4-dihydroxybenzyl)-4-methoxybenzamide], on mushroom tyrosinase, the IC50 is 1400 nM.

As for `COc1ccc(C(=O)NCc2ccc(O)c(O)c2)cc1C12CC3CC(CC(C3)C1)C2` [Example 12, 3-adamantan-1-yl-N-(3,4-dihydroxybenzyl)-4-methoxybenzamide], in the experiment with B16F10 melanoma cells, the IC50 is 1900 nM.

With `COc1cc(O)c(C(=O)NCc2ccc(O)cc2O)cc1C12CC3CC(CC(C3)C1)C2` [Example 9, 5-adamantan-1-yl-N-(2,4-dihydroxybenzyl)-2-hydroxy-4-methoxybenzamide], the IC50 with B16F10 melanoma cells was 1800 nM; at mushroom tyrosinase, 800 nM. As for `O=C(NCc1cc(O)ccc1O)c1cc(C23CC4CC(CC(C4)C2)C3)c(O)cc1O` [Example 20, 5-adamantan-1-yl-N-(2,5-dihydroxybenzyl)-2,4-dihydroxybenzamide], in the experiment with B16F10 melanoma cells, the IC50 came to 2900 nM.

For `O=C(NCc1ccc(O)cc1O)c1ccc(O)c(C23CC4CC(CC(C4)C2)C3)c1` [Example 17, 3-adamantan-1-yl-N-(2,4-dihydroxybenzyl)-4-hydroxybenzamide], the IC50 at mushroom tyrosinase was found to be 900 nM.

Consider `CCCCc1ccc(O)cc1O` [Rucinol, reference compound], for which the IC50 in the experiment with B16F10 melanoma cells is 10000 nM; at mushroom tyrosinase, 1300 nM. Taken in the same sequence, the figures for `COc1cc(OC)c(C23CC4CC(CC(C4)C2)C3)cc1C(=O)NCc1ccc(O)cc1O` [Example 10, 5-adamantan-1-yl-N-(2,4-dihydroxybenzyl)-2,4-dimethoxybenzamide] were 1100 nM and 900 nM. For the molecule `O=C(NCCc1ccc(O)c(O)c1)c1cc(C23CC4CC(CC(C4)C2)C3)c(O)cc1O` [Example 1, 5-adamantan-1-yl-N-[2-(3,4-dihydroxyphenyl)-ethyl]-2,4-dihydroxybenzamide], the IC50 with B16F10 melanoma cells came to 1200 nM.

Regarding `O=C(NCc1ccc(O)cc1O)c1cc(C23CC4CC(CC(C4)C2)C3)c(O)cc1O` [Example 8, 5-adamantan-1-yl-N-(2,4-dihydroxybenzyl)-2,4-dihydroxybenzamide], the values for the IC50 in the experiment with B16F10 melanoma cells and on mushroom tyrosinase were 1200 nM and 1100 nM, respectively.

Consider `O=C(NCCc1ccc(O)cc1)c1cc(C23CC4CC(CC(C4)C2)C3)c(O)cc1O` [Example 5, 5-adamantan-1-yl-2,4-dihydroxy-N-[2-(4-hydroxyphenyl)-ethyl]benzamide], for which the IC50 in the experiment with B16F10 melanoma cells was found to be 1100 nM.
